Measured values: US6461997B1, “Triazole sulfones having herbicidal activity” (Monsanto Technology LLC, priority 1999, dated 2002)

tested on: VERPE (creeping speedwell); assay: Pre-emergence herbicidal activity, cool season; type: in vivo, Veronica persicaria; details: lowest tested rate with 80% or greater inhibition; rates 300, 100, 30, 10 g/ha; about 14 days
How it was run: (§1)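 Seeds sown in sterilised fertilised topsoil received surface-applied compound in 50:50 acetone/water, typically at 300, 100, 30 and 10 g/ha, then greenhouse-grown at 30/21° C (warm-season species) or 18/13° C (cool-season species). Percent inhibition versus untreated plants was scored at about 14 days, giving GR80; an asterisk marks activity short of 80% at the top rate.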

Row | SMILES | Pre-emergence activity GR80, VERPE [g/ha]
1 | CN(C(=O)n1cnc(S(=O)(=O)C(F)F)n1)C1CCCCC1 [Example 32] | 300

tested on: SETFA (giant foxtail); assay: Pre-emergence herbicidal activity, warm season; type: in vivo, Setaria faberi; details: GR80 = lowest tested rate (300, 100, 30, 10 g/ha) with 80% or greater inhibition; approx. 14 days after treating; 30/21° C.
Experimental: (§2) Tables 5 to 8 summarize results of tests conducted as described below to determine the pre-emergence herbicidal activity, in the form of a GR80 value, of illustrative compounds of this invention. […] Compounds of the invention were typically applied at rates of 300, 100, 30, and 10 g/ha. Where herbicidal activity was evident but 80% inhibition was not achieved at the highest rate tested, an asterisk (*) is shown in the following tables.
(§3) The pre-emergence tests were conducted by the following procedure. Topsoil was sieved to pass through a 1.27 cm screen. Fertilizer was added to the topsoil and the mixture was then sterilized by heating. The topsoil mixture was placed in a pot and compacted to a depth of 1.0 to 1.25 cm from the top of the pot. Seeds of each of several monocotyledonous and dicotyledonous annual plant species were placed on top of the soil. Additional soil was subsequently placed over the seeds to level-fill the pot. A known amount of each test compound dissolved or suspended in an appropriate organic solvent was diluted with a 50:50 mix of acetone and water and applied to the surface of the soil. After treatment the plants were placed in a greenhouse where they received 0.64 cm of overhead irrigation. All subsequent watering consisted of a light overhead mist and/or subirrigation as needed for germination and growth. Tables 5 and 6 below relate to warm season plant species which were placed after pre-emergence treatment in a greenhouse with a 30/21° C. day/night temperature regime. Tables 7 and 8 below relates to cool season plant species placed after pre-emergence treatment in a greenhouse or growth chamber with an 18/13° C. day/night temperature regime.
(§4) Approximately 14 days after planting and treating, the plants were observed and herbicidal efficacy recorded as percent inhibition by comparison with untreated plants.
(§5) The plant species usually regarded as weeds which were utilized in the tests are identified in the tables below according to the following legend, in which “d” indicates a dicotyledonous species and “m” a monocotyledonous species. All monocotyledonous species included in the tests herein are grasses.

Row | SMILES | Pre-emergence activity (GR80) SETFA [g/ha]
2 | CN(C(=O)n1cnc(S(=O)(=O)C(F)F)n1)C1CCCCC1 [Example 32] | 300

tested on: SASKR (russian thistle); assay: Pre-emergence herbicidal activity, cool season; type: in vivo, Salsola kali; details: lowest tested rate with 80% or greater inhibition; rates 300, 100, 30, 10 g/ha; about 14 days
How it was run: as §1

Row | SMILES | Pre-emergence activity GR80, SASKR
3 | CN(C(=O)n1cnc(S(=O)(=O)C(F)F)n1)C1CCCCC1 [Example 32] | [empty]

tested on: CIRAR (canada thistle (seedling)); assay: Pre-emergence herbicidal activity, warm season; type: in vivo, Cirsium arvense; details: GR80 = lowest tested rate (300, 100, 30, 10 g/ha) with 80% or greater inhibition; approx. 14 days after treating; 30/21° C.
Experimental: as §2, §3, §4, §5

Row | SMILES | Pre-emergence activity (GR80) CIRAR [g/ha]
4 | CN(C(=O)n1cnc(S(=O)(=O)C(F)F)n1)C1CCCCC1 [Example 32] | 300

tested on: SINAR (wild mustard); assay: Pre-emergence herbicidal activity, cool season; type: in vivo, Sinapis arvensis; details: lowest tested rate with 80% or greater inhibition; rates 300, 100, 30, 10 g/ha; about 14 days
How it was run: as §1

Row | SMILES | Pre-emergence activity GR80, SINAR [g/ha]
5 | CN(C(=O)n1cnc(S(=O)(=O)C(F)F)n1)C1CCCCC1 [Example 32] | 100

tested on: GALAP (catchweed bedstraw); assay: Pre-emergence herbicidal activity, cool season; type: in vivo, Galium aparine; details: lowest tested rate with 80% or greater inhibition; rates 300, 100, 30, 10 g/ha; about 14 days
How it was run: as §1

Row | SMILES | Pre-emergence activity GR80, GALAP [g/ha]
6 | CN(C(=O)n1cnc(S(=O)(=O)C(F)F)n1)C1CCCCC1 [Example 32] | 100

tested on: LAMPU (purple deadnettle); assay: Pre-emergence herbicidal activity, cool season; type: in vivo, Lamium purpureum; details: lowest tested rate with 80% or greater inhibition; rates 300, 100, 30, 10 g/ha; about 14 days
How it was run: as §1

Row | SMILES | Pre-emergence activity GR80, LAMPU
7 | CN(C(=O)n1cnc(S(=O)(=O)C(F)F)n1)C1CCCCC1 [Example 32] | [empty]

tested on: POROL (common purslane); assay: Pre-emergence herbicidal activity, warm season; type: in vivo, Portulaca oleracea; details: GR80 = lowest tested rate (300, 100, 30, 10 g/ha) with 80% or greater inhibition; approx. 14 days after treating; 30/21° C.
Experimental: as §2, §3, §4, §5

Row | SMILES | Pre-emergence activity (GR80) POROL [g/ha]
8 | CN(C(=O)n1cnc(S(=O)(=O)C(F)F)n1)C1CCCCC1 [Example 32] | 100

tested on: DIGSA (large crabgrass); assay: Pre-emergence herbicidal activity, warm season; type: in vivo, Digitaria sanguinalis; details: GR80 = lowest tested rate (300, 100, 30, 10 g/ha) with 80% or greater inhibition; approx. 14 days after treating; 30/21° C.
Experimental: as §2, §3, §4, §5

Row | SMILES | Pre-emergence activity (GR80) DIGSA [g/ha]
9 | CN(C(=O)n1cnc(S(=O)(=O)C(F)F)n1)C1CCCCC1 [Example 32] | 300

tested on: STEME (common chickweed); assay: Pre-emergence herbicidal activity, cool season; type: in vivo, Stellaria media; details: lowest tested rate with 80% or greater inhibition; rates 300, 100, 30, 10 g/ha; about 14 days
How it was run: as §1

Row | SMILES | Pre-emergence activity GR80, STEME [g/ha]
10 | CN(C(=O)n1cnc(S(=O)(=O)C(F)F)n1)C1CCCCC1 [Example 32] | 300

tested on: SORHA (johnsongrass (seedling)); assay: Pre-emergence herbicidal activity, warm season; type: in vivo, Sorghum halepense; details: GR80 = lowest tested rate (300, 100, 30, 10 g/ha) with 80% or greater inhibition; approx. 14 days after treating; 30/21° C.
Experimental: as §2, §3, §4, §5

Row | SMILES | Pre-emergence activity (GR80) SORHA [g/ha]
11 | CN(C(=O)n1cnc(S(=O)(=O)C(F)F)n1)C1CCCCC1 [Example 32] | 30

tested on: ALOMY (blackgrass); assay: Pre-emergence herbicidal activity, cool season; type: in vivo, Alopecurus myosuroides; details: GR80 = lowest tested rate (300, 100, 30, 10 g/ha) with 80% or greater inhibition; approx. 14 days after treating; 18/13° C.
Experimental: as §2, §3, §4, §5

Row | SMILES | Pre-emergence activity (GR80) ALOMY [g/ha]
12 | CN(C(=O)n1cnc(S(=O)(=O)C(F)F)n1)C1CCCCC1 [Example 32] | 300

tested on: SORVU (shattercane); assay: Pre-emergence herbicidal activity, warm season; type: in vivo, Sorghum vulgare; details: GR80 = lowest tested rate (300, 100, 30, 10 g/ha) with 80% or greater inhibition; approx. 14 days after treating; 30/21° C.
Experimental: as §2, §3, §4, §5

Row | SMILES | Pre-emergence activity (GR80) SORVU [g/ha]
13 | CN(C(=O)n1cnc(S(=O)(=O)C(F)F)n1)C1CCCCC1 [Example 32] | 300

tested on: AMARE (redroot pigweed); assay: Pre-emergence herbicidal activity, warm season; type: in vivo, Amaranthus retroflexus; details: GR80 = lowest tested rate (300, 100, 30, 10 g/ha) with 80% or greater inhibition; approx. 14 days after treating; 30/21° C.
Experimental: as §2, §3, §4, §5

Row | SMILES | Pre-emergence activity (GR80) AMARE [g/ha]
14 | CN(C(=O)n1cnc(S(=O)(=O)C(F)F)n1)C1CCCCC1 [Example 32] | 300

tested on: POLCO (wild buckwheat); assay: Pre-emergence herbicidal activity, cool season; type: in vivo, Polygonum convolvulus; details: lowest tested rate with 80% or greater inhibition; rates 300, 100, 30, 10 g/ha; about 14 days
How it was run: as §1

Row | SMILES | Pre-emergence activity GR80, POLCO
15 | CN(C(=O)n1cnc(S(=O)(=O)C(F)F)n1)C1CCCCC1 [Example 32] | [empty]

tested on: AGSST (creeping bentgrass); assay: Pre-emergence herbicidal activity, cool season; type: in vivo, Agrostis stolonifera; details: GR80 = lowest tested rate (300, 100, 30, 10 g/ha) with 80% or greater inhibition; approx. 14 days after treating; 18/13° C.
How it was run: as §1

Row | SMILES | Pre-emergence activity (GR80) AGSST [g/ha]
16 | CN(C(=O)n1cnc(S(=O)(=O)C(F)F)n1)C1CCCCC1 [Example 32] | 300

tested on: PANMI (wild proso millet); assay: Pre-emergence herbicidal activity, warm season; type: in vivo, Panicum miliaceum; details: GR80 = lowest tested rate (300, 100, 30, 10 g/ha) with 80% or greater inhibition; approx. 14 days after treating; 30/21° C.
How it was run: as §1

Row | SMILES | Pre-emergence activity (GR80) PANMI [g/ha]
17 | CN(C(=O)n1cnc(S(=O)(=O)C(F)F)n1)C1CCCCC1 [Example 32] | 300

tested on: SOLNI (black nightshade); assay: Pre-emergence herbicidal activity, warm season; type: in vivo, Solanum nigrum; details: GR80 = lowest tested rate (300, 100, 30, 10 g/ha) with 80% or greater inhibition; approx. 14 days after treating; 30/21° C.
Experimental: as §2, §3, §4, §5

Row | SMILES | Pre-emergence activity (GR80) SOLNI [g/ha]
18 | CN(C(=O)n1cnc(S(=O)(=O)C(F)F)n1)C1CCCCC1 [Example 32] | 300

tested on: ECHCG (barnyardgrass); assay: Pre-emergence herbicidal activity, warm season; type: in vivo, Echinochloa crus-galli; details: GR80 = lowest tested rate (300, 100, 30, 10 g/ha) with 80% or greater inhibition; approx. 14 days after treating; 30/21° C.
How it was run: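 GR80 values derive from percent inhibition relative to untreated plants, read roughly 14 days after sowing and pre-emergence soil-surface treatment (compound in 50:50 acetone/water; rates typically 10, 30, 100, 300 g/ha). Warm-season weeds grew at 30/21° C day/night, cool-season ones at 18/13° C; an asterisk marks activity without reaching 80% at the highest rate.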

Row | SMILES | Pre-emergence activity (GR80) ECHCG [g/ha]
19 | CN(C(=O)n1cnc(S(=O)(=O)C(F)F)n1)C1CCCCC1 [Example 32] | 300

tested on: LOLMG (annual ryegrass); assay: Pre-emergence herbicidal activity, cool season; type: in vivo, Lolium multiflorum; details: GR80 = lowest tested rate (300, 100, 30, 10 g/ha) with 80% or greater inhibition; approx. 14 days after treating; 18/13° C.
Experimental: as §2, §3, §4, §5

Row | SMILES | Pre-emergence activity (GR80) LOLMG [g/ha]
20 | CN(C(=O)n1cnc(S(=O)(=O)C(F)F)n1)C1CCCCC1 [Example 32] | 300

tested on: SETVI (green foxtail); assay: Pre-emergence herbicidal activity, cool season; type: in vivo, Setaria viridis; details: GR80 = lowest tested rate (300, 100, 30, 10 g/ha) with 80% or greater inhibition; approx. 14 days after treating; 18/13° C.
How it was run: as §1

Row | SMILES | Pre-emergence activity (GR80) SETVI [g/ha]
21 | CN(C(=O)n1cnc(S(=O)(=O)C(F)F)n1)C1CCCCC1 [Example 32] | 100

tested on: CHEAL (common lambsquarters); assay: Pre-emergence herbicidal activity, warm season; type: in vivo, Chenopodium album; details: GR80 = lowest tested rate (300, 100, 30, 10 g/ha) with 80% or greater inhibition; approx. 14 days after treating; 30/21° C.
Experimental: as §2, §3, §4, §5

Row | SMILES | Pre-emergence activity (GR80) CHEAL [g/ha]
22 | CN(C(=O)n1cnc(S(=O)(=O)C(F)F)n1)C1CCCCC1 [Example 32] | 300
